pIC50: −log10 of the molar value. Structures can show the parent of a compound that is named as a salt.

T1 sequence (Q9Y2I7 whole entry S696N/L932S/Q995L/T998S/S1033A/Q1183K): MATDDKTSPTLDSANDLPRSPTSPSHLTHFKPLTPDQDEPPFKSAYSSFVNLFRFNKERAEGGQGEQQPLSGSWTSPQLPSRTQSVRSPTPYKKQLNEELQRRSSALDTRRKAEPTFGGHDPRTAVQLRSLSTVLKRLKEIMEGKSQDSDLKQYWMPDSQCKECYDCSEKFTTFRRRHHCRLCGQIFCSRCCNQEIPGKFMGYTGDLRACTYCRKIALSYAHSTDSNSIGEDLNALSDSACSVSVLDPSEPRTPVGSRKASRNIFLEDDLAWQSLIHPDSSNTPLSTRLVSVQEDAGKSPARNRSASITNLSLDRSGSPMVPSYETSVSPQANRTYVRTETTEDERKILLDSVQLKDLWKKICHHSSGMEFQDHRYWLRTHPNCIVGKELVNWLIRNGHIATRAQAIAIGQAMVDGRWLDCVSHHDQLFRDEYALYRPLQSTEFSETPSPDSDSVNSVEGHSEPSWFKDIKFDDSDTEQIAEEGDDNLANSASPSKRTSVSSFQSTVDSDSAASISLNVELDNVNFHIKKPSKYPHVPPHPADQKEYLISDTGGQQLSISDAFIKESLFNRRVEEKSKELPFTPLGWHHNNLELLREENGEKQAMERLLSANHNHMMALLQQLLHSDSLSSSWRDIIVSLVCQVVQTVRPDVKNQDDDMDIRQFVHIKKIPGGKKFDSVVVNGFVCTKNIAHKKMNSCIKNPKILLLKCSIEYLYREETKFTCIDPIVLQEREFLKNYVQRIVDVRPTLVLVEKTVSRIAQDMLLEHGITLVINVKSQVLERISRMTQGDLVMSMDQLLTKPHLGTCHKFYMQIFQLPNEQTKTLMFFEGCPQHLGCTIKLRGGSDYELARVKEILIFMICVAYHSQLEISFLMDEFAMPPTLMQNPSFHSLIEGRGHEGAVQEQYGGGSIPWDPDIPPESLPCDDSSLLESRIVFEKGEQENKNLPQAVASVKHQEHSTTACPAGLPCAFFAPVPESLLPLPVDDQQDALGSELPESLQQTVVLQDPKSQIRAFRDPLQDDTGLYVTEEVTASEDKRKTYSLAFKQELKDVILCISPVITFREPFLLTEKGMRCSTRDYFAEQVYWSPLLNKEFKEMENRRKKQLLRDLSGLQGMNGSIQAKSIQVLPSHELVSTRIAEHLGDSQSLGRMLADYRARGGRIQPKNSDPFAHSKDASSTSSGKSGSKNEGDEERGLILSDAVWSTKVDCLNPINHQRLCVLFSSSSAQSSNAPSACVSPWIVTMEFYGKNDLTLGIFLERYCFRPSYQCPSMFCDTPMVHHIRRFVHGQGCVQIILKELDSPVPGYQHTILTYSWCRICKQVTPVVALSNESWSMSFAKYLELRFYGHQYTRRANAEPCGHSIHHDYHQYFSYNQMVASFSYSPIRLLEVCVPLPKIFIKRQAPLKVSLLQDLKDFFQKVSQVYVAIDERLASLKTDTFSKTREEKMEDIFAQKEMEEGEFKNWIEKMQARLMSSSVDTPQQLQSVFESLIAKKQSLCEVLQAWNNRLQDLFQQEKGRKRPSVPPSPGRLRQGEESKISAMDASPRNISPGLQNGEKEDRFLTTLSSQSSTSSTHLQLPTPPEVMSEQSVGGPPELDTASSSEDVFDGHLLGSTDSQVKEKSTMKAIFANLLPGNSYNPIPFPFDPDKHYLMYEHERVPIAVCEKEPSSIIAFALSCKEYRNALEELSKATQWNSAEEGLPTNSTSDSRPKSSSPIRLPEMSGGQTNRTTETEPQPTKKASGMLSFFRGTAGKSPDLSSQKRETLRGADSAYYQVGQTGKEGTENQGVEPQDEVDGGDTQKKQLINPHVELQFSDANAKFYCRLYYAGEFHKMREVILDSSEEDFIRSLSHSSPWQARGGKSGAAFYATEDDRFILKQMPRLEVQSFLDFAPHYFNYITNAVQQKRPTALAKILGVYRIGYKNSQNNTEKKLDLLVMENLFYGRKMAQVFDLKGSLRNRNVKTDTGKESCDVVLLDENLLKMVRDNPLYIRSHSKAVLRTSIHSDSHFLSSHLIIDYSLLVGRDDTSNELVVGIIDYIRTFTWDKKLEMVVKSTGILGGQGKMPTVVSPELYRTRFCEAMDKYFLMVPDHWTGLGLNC

This test addresses T1, full-length human PIKFYVE (Homo sapiens, UniProt Q9Y2I7, L932S/Q1183K/Q995L/S1033A/S696N/T998S).
T1 construct: A full-length human PIKFYVE [1-2098(end) amino acids and S696N, L932S, Q995L, T998S, S1033A and Q1183K; purchased Carna Biosciences; host or cells: baculovirus expression system
The experiment in a line: PIKfyve biochemical assay (ADP-Glo Kinase assay, Carna Biosciences). The following applies: GST-PIKFYVE, 10 μM to 3 nM in duplicate, read-out: hPIKfyve IC50.
Source text: (§1) PIKfyve Biochemical Assay. The biochemical PIKFyve inhibition assays were run by Carna Biosciences according to proprietary methodology based on the Promega ADP-Glo™ Kinase assay. A full-length human PIKFYVE [1-2098(end) amino acids and S696N, L932S, Q995L, T998S, S1033A and Q1183K of the protein having the sequence set forth in NCBI Reference Sequence No. NP_055855.2] was expressed as N-terminal GST-fusion protein (265 kDa) using baculovirus expression system. GST-PIKFYVE was purified by using glutathione sepharose chromatography and used in an ADP-Glo™ Kinase assay (Promega). Reactions were set up by adding the test compound solution, substrate solution, ATP solution and kinase solution, each at 4× final concentrations. Reactions were prepared with assay buffer (50 mM MOPS, 1 mM DTT, pH7.2), mixed, and incubated in black 384 well polystyrene plates for 1 hour at room temperature. ADP-Glo™ reagent was then added for 40 minutes, followed by kinase detection reagent for an additional 40 minutes. The kinase activity was evaluated by detecting relative light units on a luminescence plate reader. Samples were run in duplicate from 10 μM to 3 nM. […] IC50 values were calculated from concentration vs % inhibition curves by fitting to a four-parameter logistic curve.
as §1, with “The” for “PIKfyve Biochemical Assay. The”, “accession number” for “the protein having the sequence set forth in NCBI Reference Sequence No.”, “uM” for “μM”
(In general: ADP-Glo turns the ADP formed in a reaction into a luminescent signal.)
For `c1cc(-c2ccn(-c3nc(N4CCOCC4)c4ncc(C5CCOCC5)cc4n3)n2)ccn1` [Compound 51, 4-[2-[3-(4-pyridyl)pyrazol-1-yl]-7-tetrahydropyran-4-yl-pyrido[3,2-d]pyrimidin-4-yl]morpholine], the pIC50 is 5.00 to 6.00.

Turning to `c1ccc(-c2ccn(-c3nc(N4CCOCC4)c4ncc(C5CCOCC5)cc4n3)n2)nc1` [Compound 21, 4-[2-[3-(2-pyridyl)pyrazol-1-yl]-7-tetrahydropyran-4-yl-pyrido[3,2-d]pyrimidin-4-yl]morpholine], the pIC50 was 6.00 to 7.00.

With `c1cncc(-c2ccn(-c3nc(N4CCOCC4)c4ncc(C5CCOCC5)cc4n3)n2)c1` [Compound 52, 4-[2-[3-(3-pyridyl)pyrazol-1-yl]-7-tetrahydropyran-4-yl-pyrido[3,2-d]pyrimidin-4-yl]morpholine], the pIC50 was 5.00 to 6.00.

Regarding `COc1ccc(-c2ccn(-c3nc(N4CCOCC4)c4ncc(C5CCOCC5)cc4n3)n2)cc1` [Compound 30, 4-(2-(3-(4-methoxyphenyl)-1H-pyrazol-1-yl)-7-(tetrahydro-2H-pyran-4-yl)pyrido[3,2-d]pyrimidin-4-yl)morpholine], the pIC50 was 6.00 to 7.00.

As to `COc1ccc(-c2ccn(-c3nc(N4CCOCC4)c4ncc(C5=CCOCC5)cc4n3)n2)cc1` [Compound 29, 4-(7-(3,6-dihydro-2H-pyran-4-yl)-2-(3-(4-methoxyphenyl)-1H-pyrazol-1-yl)pyrido[3,2-d]pyrimidin-4-yl)morpholine], the pIC50 is 6.00 to 7.00.

`c1ccc(-c2ccn(-c3nc(N4CCOCC4)c4ncc(C5CC5)cc4n3)n2)cc1` [Compound 55, 4-[7-cyclopropyl-2-(3-phenylpyrazol-1-yl)pyrido[3,2-d]pyrimidin-4-yl]morpholine]: the pIC50 is 7.00 to 8.00.

In the case of `Oc1cccc(/C=N/Nc2nc(N3CCOCC3)c3ncccc3n2)c1` [Compound 114, (E)-3-((2-(4-morpholinopyrido[3,2-d]pyrimidin-2-yl)hydrazono)methyl)phenol], the pIC50 is 6.00 to 7.00.

Turning to `Fc1ccc(-c2ccn(-c3nc(N4CCOCC4)c4ncc(C5CCOCC5)cc4n3)n2)cc1` [Compound 20, 4-[2-[3-(4-fluorophenyl)pyrazol-1-yl]-7-tetrahydropyran-4-yl-pyrido[3,2-d]pyrimidin-4-yl]morpholine], the pIC50 was 7.00 to 8.00.

As for `COC(=O)c1cnc2c(N3CCOCC3)nc(-n3cc(-c4cccc(OC)c4)cn3)nc2c1` [Compound 43, methyl 2-(4-(3-methoxyphenyl)-1H-pyrazol-1-yl)-4-morpholinopyrido[3,2-d]pyrimidine-7-carboxylate], the pIC50 was over 8.00.

Consider `CC(C)c1ccn(-c2nc(N3CCOCC3)c3ncccc3n2)n1` [Compound 18, 4-(2-(3-isopropyl-1H-pyrazol-1-yl)pyrido[3,2-d]pyrimidin-4-yl)morpholine], for which the pIC50 is under 5.00.

Consider `CC(C)(C)OC(=O)N1CCC(Cc2ccn(-c3nc(N4CCOCC4)c4ncccc4n3)n2)C1` (stereo not shown) [Compound 63, tert-butyl 3-[[1-(4-morpholinopyrido[3,2-d]pyrimidin-2-yl)pyrazol-3-yl]methyl]pyrrolidine-1-carboxylate], for which the pIC50 is 5.00 to 6.00.

On to `COc1cncc(-c2cnc3c(N4CCOCC4)nc(-c4ccn(CC(F)(F)F)n4)nc3c2)c1` [Compound 65, 4-(7-(5-methoxypyridin-3-yl)-2-(1-(2,2,2-trifluoroethyl)-1H-pyrazol-3-yl)pyrido[3,2-d]pyrimidin-4-yl)morpholine], for which the pIC50 was 5.00 to 6.00.

As to `Brc1cnc2c(N3CCOCC3)nc(-n3ccc(-c4ccccc4)n3)nc2c1` [Compound 33, 4-(7-bromo-2-(3-phenyl-1H-pyrazol-1-yl)pyrido[3,2-d]pyrimidin-4-yl)morpholine], the pIC50 is 6.00 to 7.00.

As to `COc1cnc2c(N3CCOCC3)nc(-n3ccc(-c4cccc(C)c4)n3)nc2c1` [Compound 54, 4-(7-methoxy-2-(3-m-tolyl-1H-pyrazol-1-yl)pyrido[3,2-d]pyrimidin-4-yl)morpholine], the pIC50 is over 8.00.

On to `c1ccc(-c2ccn(-c3nc(N4CCOCC4)c4ncc(-c5ccncc5)cc4n3)n2)cc1` [Compound 48, 4-(2-(3-phenyl-1H-pyrazol-1-yl)-7-(pyridin-4-yl)pyrido[3,2-d]pyrimidin-4-yl)morpholine], for which the pIC50 is 7.00 to 8.00.

As to `COc1cccc(-c2ccn(-c3nc(N4CCOCC4)c4ncc(C5=CCOCC5)cc4n3)n2)c1` [Compound 16, 4-(7-(3,6-dihydro-2H-pyran-4-yl)-2-(3-(3-methoxyphenyl)-1H-pyrazol-1-yl)pyrido[3,2-d]pyrimidin-4-yl)morpholine], the pIC50 is over 8.00.

Take `c1cnc2c(N3CCOCC3)nc(-c3ccnc(-c4ccoc4)n3)nc2c1` [Compound 98, 4-(2-(2-(furan-3-yl)pyrimidin-4-yl)pyrido[3,2-d]pyrimidin-4-yl)morpholine]: the pIC50 is 5.00 to 6.00.

Consider `Cc1cnc(-c2ccccc2)nc1-c1nc(N2CCOCC2)c2ncccc2n1` [Compound 96, 4-(2-(5-methyl-2-phenylpyrimidin-4-yl)pyrido[3,2-d]pyrimidin-4-yl)morpholine], for which the pIC50 is 5.00 to 6.00.

Regarding `Cc1cnc2c(N3CCOCC3)nc(-n3ccc(-c4ccccc4)n3)nc2c1` [Compound 34, 4-(7-methyl-2-(3-phenyl-1H-pyrazol-1-yl)pyrido[3,2-d]pyrimidin-4-yl)morpholine], the pIC50 was 7.00 to 8.00.

As to `Oc1cccc(-c2cnn(-c3nc(N4CCOCC4)c4ncccc4n3)c2)c1` [Compound 46, 3-(1-(4-morpholinopyrido[3,2-d]pyrimidin-2-yl)-1H-pyrazol-4-yl)phenol], the pIC50 was over 8.00.

Consider `c1cnc2c(N3CCOCC3)nc(-c3ccnc(C4CCNCC4)n3)nc2c1` [Compound 84, 4-[2-[2-(4-piperidyl)pyrimidin-4-yl]pyrido[3,2-d]pyrimidin-4-yl]morpholine], for which the pIC50 was under 5.00.

Regarding `CN1CCN(c2cnc3c(N4CCOCC4)nc(-n4cc(-c5ccccc5)cn4)nc3c2)C(=O)C1` [Compound 56, 4-methyl-1-(4-morpholino-2-(4-phenyl-1H-pyrazol-1-yl)pyrido[3,2-d]pyrimidin-7-yl)piperazin-2-one], the pIC50 was 7.00 to 8.00.

As for `COc1cccc(-c2cnn(-c3nc(N4CCOCC4)c4ncccc4n3)c2)c1` [Compound 28, 4-(2-(4-(3-methoxyphenyl)-1H-pyrazol-1-yl)pyrido[3,2-d]pyrimidin-4-yl)morpholine], the pIC50 was over 8.00.

In the case of `c1ccc(-c2cn(-c3nc(N4CCOCC4)c4ncccc4n3)nn2)cc1` [Compound 74, 4-(2-(4-phenyl-1H-1,2,3-triazol-1-yl)pyrido[3,2-d]pyrimidin-4-yl)morpholine], the pIC50 was 6.00 to 7.00.

For the molecule `c1ccc(-c2cnn(-c3nc(N4CCOCC4)c4ncccc4n3)n2)cc1` [Compound 75, 4-(2-(4-phenyl-2H-1,2,3-triazol-2-yl)pyrido[3,2-d]pyrimidin-4-yl)morpholine hydrochloride], the pIC50 was 7.00 to 8.00.

Regarding `c1ncc(-c2ccn(-c3nc(N4CCOCC4)c4ncc(C5CCOCC5)cc4n3)n2)cn1` [Compound 50, 4-[2-(3-pyrimidin-5-ylpyrazol-1-yl)-7-tetrahydropyran-4-yl-pyrido[3,2-d]pyrimidin-4-yl]morpholine], the pIC50 is under 5.00.

Consider `c1ccc(-c2ccn(-c3nc(N4CCOCC4)c4ncc(N5CCNCC5)cc4n3)n2)cc1` [Compound 42, 4-[2-(3-phenylpyrazol-1-yl)-7-piperazin-1-yl-pyrido[3,2-d]pyrimidin-4-yl]morpholine], for which the pIC50 was 7.00 to 8.00.

`CC1COCCN1c1nc(-n2ccc(-c3ccccc3)n2)nc2cccnc12` (stereo not shown) [Compound 31, 3-methyl-4-(2-(3-phenyl-1H-pyrazol-1-yl)pyrido[3,2-d]pyrimidin-4-yl)morpholine]: the pIC50 is 6.00 to 7.00.

As to `c1ccc(-c2nccc(-c3nc(N4CCOCC4)c4ncccc4n3)n2)cc1` [Compound 90, 4-(2-(2-phenylpyrimidin-4-yl)pyrido[3,2-d]pyrimidin-4-yl)morpholine], the pIC50 is 7.00 to 8.00.

For the molecule `CC(C)(C)OC(=O)N1CCC=C(c2ccn(-c3nc(N4CCOCC4)c4ncccc4n3)n2)C1` [Compound 5, tert-butyl 3-(1-(4-morpholinopyrido[3,2-d]pyrimidin-2-yl)-1H-pyrazol-3-yl)-5,6-dihydropyridine-1(2H)-carboxylate], the pIC50 is under 5.00.

In the case of `COc1cnc(-c2ccccc2)nc1-c1nc(N2CCOCC2)c2ncccc2n1` [Compound 93, 4-(2-(5-methoxy-2-phenylpyrimidin-4-yl)pyrido[3,2-d]pyrimidin-4-yl)morpholine], the pIC50 is 6.00 to 7.00.

What is called pIC50 is the IC50 on a negative log10 scale, so that one unit is a factor of ten.
